# According to US8232253B2, “Treatment of lung cancer” (Ramot at Tel-Aviv University Ltd., priority 2006, dated 2012):
# Biological target: T1, K-Ras-GTP (Homo sapiens, UniProt P01116, G12S)
# T1 construct: endogenous in cells; host or cells: A549 (ATCC)
# Assay: K-Ras-GTP GST-RBD pull-down assay and immunoblotting in A549 cells
# Assay type: cell-based
# Experimental: A549 cells were incubated for 24 or 48 h with or without FTS, as described above, and then lysed with lysis buffer as described in Haklai, R., Gana-Weisz, M., Elad, G., et al., Biochemistry 37:1306-14 (1998). The apparent amounts of K-Ras-GTP in 0.5 mg protein of total cell lysates were determined by the glutathione-S-transferase (GST)-RBD (Ras-binding domain of Raf) pull-down assay, as described in (Elad-Sfadia, G., Haklai, R., Ballan, E., Gabius, H. J., Kloog, Y., J Biol Chem 277:37169-75 (2002). The apparent amounts of Rac1-GTP and of RhoA-GTP, each in 2 mg protein of total cell lysates, were determined, respectively, by pull-down assays with GST-PBD (Rac1-binding domain of PAK1)-conjugated and GST-Rhotekin BD (Rho-binding domain of Rhotekin)-conjugated beads [Benard, V., Bohl, B. P., Bokoch, G. M, J Biol Chem 274:13198-204 (1999); Fiordalisi, J. J., Keller, P. J., Cox, A. D., Cancer Res 66:3153-61 (2006). The pulled-down GTPases were subjected to SDS-PAGE followed by immunoblotting with the appropriate antibodies: anti K-Ras (1:30; Calbiochem, La Jolla, Calif.), anti Rac-1 (1:2500; Santa Cruz Biotechnology, Santa Cruz, Calif.), or anti RhoA (1:700; Upstate Biotechnology, Lake Placid, N.Y.). Immunoblots were exposed to 1:2500 peroxidase-goat anti-mouse IgG. Levels of phospho-ERK and phospho-Akt were determined by immunoblotting [Haklai, R., Gana-Weisz, M., Elad, G., et al., supra.] using rabbit anti phospho-ERK1/2 Ab (Santa Cruz Biotechnology, Santa Cruz, Calif.) and rabbit anti phospho-Akt Ab (Cell Signaling, Beverly, Mass.). Protein bands were visualized by enhanced chemiluminescence and quantified by densitometry using ImageJ computer software (National institutes of Health, Bethesda, Md.).
# To determine whether active K-Ras-GTP and its prominent downstream signals to ERK and Akt were inhibited in A549 cells, and if so, whether the […] growth of the cells was also affected, two experiments were performed. First, A549 cells were incubated in the absence and in the presence of various concentrations of FTS and K-Ras-GTP, phospho-ERK and phospho-Akt levels were measured.
# T1 sequence (P01116 whole entry G12S): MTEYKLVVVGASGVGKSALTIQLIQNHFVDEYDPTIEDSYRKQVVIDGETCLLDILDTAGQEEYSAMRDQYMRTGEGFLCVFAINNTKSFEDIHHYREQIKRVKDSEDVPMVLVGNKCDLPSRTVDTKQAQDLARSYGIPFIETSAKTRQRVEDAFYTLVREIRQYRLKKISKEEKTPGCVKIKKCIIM
smiles,measurement,setting,value
"CC(C)=CCC/C(C)=C/CC/C(C)=C/CSc1ccccc1C(=O)O [FTS, S-farnesylthiosalicylic acid]",reduction in K-Ras-GTP (mean±SD),25 μM FTS,23±15.3%
same,reduction in K-Ras-GTP (mean±SD),50 μM FTS,37±3.7%
same,reduction in K-Ras-GTP (mean±SD),75 μM FTS,46±1.9%
same,effective concentration range for the reduction in K-Ras-GTP,A549 cells,50 to 75 µM
same,effect on the total amount of Ras,"A549 cells, various FTS concentrations",no significant effect
